This note sets out measurements from patent publication US7491794B2, “Macrocyclic compounds as inhibitors of viral replication” (Intermune, Inc., priority 2003, dated 2009).

Bounds are passed on as bounds.

T1 sequence (P27958 1027-1657): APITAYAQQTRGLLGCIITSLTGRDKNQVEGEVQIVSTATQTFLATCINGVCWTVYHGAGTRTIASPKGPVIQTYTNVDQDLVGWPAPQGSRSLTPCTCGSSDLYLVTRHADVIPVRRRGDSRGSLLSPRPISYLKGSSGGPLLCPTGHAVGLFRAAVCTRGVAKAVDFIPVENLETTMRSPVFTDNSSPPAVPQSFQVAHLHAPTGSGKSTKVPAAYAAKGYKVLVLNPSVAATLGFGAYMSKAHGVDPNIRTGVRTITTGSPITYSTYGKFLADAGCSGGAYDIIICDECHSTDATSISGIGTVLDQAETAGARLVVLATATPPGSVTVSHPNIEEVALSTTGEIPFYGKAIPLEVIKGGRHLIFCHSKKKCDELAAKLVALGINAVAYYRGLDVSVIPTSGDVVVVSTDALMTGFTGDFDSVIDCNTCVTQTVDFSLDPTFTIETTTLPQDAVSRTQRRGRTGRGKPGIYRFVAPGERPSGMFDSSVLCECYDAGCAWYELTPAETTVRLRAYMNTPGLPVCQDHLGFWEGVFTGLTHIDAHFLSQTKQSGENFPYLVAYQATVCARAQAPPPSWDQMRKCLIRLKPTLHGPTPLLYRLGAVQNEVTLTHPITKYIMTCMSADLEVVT

The first test has as its target T1, NS3-NS4A protease (Hepatitis C virus genotype 1a, UniProt P27958).
T1 construct: Recombinant E. coli or Baculovirus full-length NS3 was diluted to 3.33 μM with assay buffer; made in house; host or cells: E. coli or baculovirus (BV) system
In words: NS3-NS4A protease assay (NS3 inhibition assay, RETS1 substrate), Section B. The test is classed as biochemical.
Details: not given
The protocol: NS3 complex formation with NS4A-2
Recombinant E. coli or Baculovirus full-length NS3 was diluted to 3.33 μM with assay buffer and the material transferred to an eppendorf tube and place in water bath in 4° C. refrigerator. The appropriate amount of NS4A-2 to 8.3 mM in assay buffer was added to equal the volume of NS3 in step 2.1.1 (conversion factor −3.8 mg/272 μL assay buffer). The material was transferred to an eppendorf tube and placed in a water bath in a 4° C. refrigerator.
After equilibration to 4° C., equal volumes of NS3 and NS4A-2 solutions were combined in an eppendorf tube, mixed gently with a manual pipettor, and the mixture incubated for 15 minutes in the 4° C. water bath. Final concentrations in the mixture were 1.67 μM NS3, 4.15 mM NS4A-2 (2485-fold molar excess NS4A-2).
After 15 minutes at 4° C., the NS3/NS4A-2 eppendorf tube was removed and placed in a room temperature water bath for 10 minutes. NS3/NS4A-2 was aliquoted at appropriate volumes and store at −80° C. (E. coli NS3 run at 2 nM in assay, aliquot at 25 μL. BV NS3 run at 3 nM in assay, aliquot at 30 μL.
Step 2.2.5. Sample compounds were dissolved to 10 mM in DMSO then diluted to 2.5 mM (1:4) in DMSO.
Step 2.2.6. The E. coli NS3/NS4A-2 was diluted to 4 nM NS3 (1:417.5 of 1.67 μM stock−18 μL 1.67 μM stock+7497 μL assay buffer).
The BV NS3/NS4A-2 was diluted to 6 nM NS3 (1:278.3 of 1.67 μM stock−24 μL 1.67 μM stock+6655 μL assay buffer).
Step 2.2.7. Using the manual multichannel pipettor, and being careful not to introduce bubbles into the plate, 50 μL assay buffer was added to wells A01-H01 of a black Costar 96-well polypropylene storage plate.
Step 2.2.8. Using the manual multichannel pipettor, and being careful not to introduce bubbles into the plate, 50 μL of diluted NS3/NS4A-2 from step 2.2.6 was added to wells A02-H12 of plate in step 2.2.7.
Step 2.2.9. Using the manual multichannel pipettor, and being careful not to introduce bubbles into the plate, 25 μL of the wells in drug dilution plate in step 2.2.5 were transferred to corresponding wells in assay plate in step 2.2.8. The tips on multichannel pipettor were changed for each row of compounds transferred.
Step 2.2.10. Using the manual multichannel pipettor, and being careful not to introduce bubbles into the plate, the wells from the assay plate in step 2.2.9 were mixed by aspirating and dispensing 35 μL of the 75 μL in each well five times. The tips on multichannel pipettor were changed for each row of wells mixed.
Step 2.2.11. The plate was covered with a polystyrene plate lid, and the plate from step 2.2.10 containing NS3 protease and sample compounds was pre-incubated 10 minutes at room temperature.
While the plate from step 2.2.11 was pre-incubating, the RETS1 substrate was diluted in a 15 mL polypropylene centrifuge tube. The RETS1 substrate was diluted to 8 μM (1:80.75 of 646 μM stock−65 μL 646 μM stock+5184 μL assay buffer).
After the plate in step 2.2.11 was done pre-incubating, and using the manual multichannel, 25 μL of substrate was added to all wells on the plate. The contents of the wells were quickly mixed, as in step 2.2.10, but mixing 65 μL of the 100 μL in the wells.
The plate was read in kinetic mode on the Molecular Devices SpectraMax Gemini XS plate reader. Reader settings: Read time: 30 minutes, Interval: 36 seconds, Reads: 51, Excitation λ: 335 nm, Emission λ: 495 nm, cutoff: 475 nm, Automix: off, Calibrate: once, PMT: high, Reads/well: 6, Vmax pts: 21 or 28/51 depending on length of linearity of reaction.
IC50s were determined using a four parameter curve fit equation, and converted to Ki's using the following Km's:
where Ki=IC50/(1+[S]/Km))
For orientation: IC50 means the concentration needed to halve the response being measured. For `CC(C)[C@@H](NC(=O)OC(C)(C)C)C(=O)N[C@H]1CCCCC/C=C\[C@@H]2C[C@@]2(C(=O)O)NC(=O)[C@@H]2C[C@@H](OC(=O)N3CCc4ccccc4C3)CN2C1=O` [AR00298989, (1S,4R,6S,14S,18R)-14-(2-tert-Butoxycarbonylamino-3-methyl-butyrylamino)-18-(3,4-dihydro-1H-isoquinoline-2-carbonyloxy)-2,15-dioxo-3,16-diaza-tricyclo[14.3.0.0^4,6]nonadec-7-ene-4-carboxylic acid], the IC50 is below 10 µM.

The same test, now with this note: read-out: NS3-NS4A IC50.
In the case of `CC(C)(C)OC(=O)N[C@H]1CCCCC/C=C\[C@@H]2C[C@@]2(C(=O)O)NC(=O)[C@@H]2C[C@@H](OC(=O)N3CCc4cc(N)ccc4C3)CN2C1=O` [AR00314578, (1S,4R,6S,14S,18R)-18-(6-Amino-3,4-dihydro-1H-isoquinoline-2-carbonyloxy)-14-tert-butoxycarbonylamino-2,15-dioxo-3,16-diaza-tricyclo[14.3.0.0^4,6]nonadec-7-ene-4-carboxylic acid], the IC50 is below 1 µM.
In the case of `CC(C)(C)OC(=O)N[C@H]1CCCCCCC[C@@H]2C[C@@]2(C(=O)O)NC(=O)[C@@H]2C[C@@H](OC(=O)N3CCc4ccccc4C3)CN2C1=O` [AR00312023], the 50% inhibitory concentration (IC50) is below 1 µM.
In the case of `CC(C)(C)OC(=O)N[C@H]1CCCCC/C=C\[C@@H]2C[C@@]2(C(=O)O)NC(=O)[C@@H]2C[C@@H](OC(=O)N3CCc4ccccc4C3CN3CCOCC3)CN2C1=O` (stereo partly drawn) [AR00333225, (1S,4R,6S,14S,18R)-14-tert-Butoxycarbonylamino-18-(1-morpholin-4-ylmethyl-3,4-dihydro-1H-isoquinoline-2-carbonyloxy)-2,15-dioxo-3,16-diaza-tricyclo[14.3.0.0^4,6]nonadec-7-ene-4-carboxylic acid], the IC50 was below 10 µM.
On the same count and under the same terms, the same measure for `CN(C)CCOc1ccc2c(c1)CN(C(=O)O[C@@H]1C[C@H]3C(=O)N[C@]4(C(=O)O)C[C@H]4/C=C\CCCCC[C@H](NC(=O)OC(C)(C)C)C(=O)N3C1)C2` [AR00371947, (1S,4R,6S,14S,18R)-14-tert-Butoxycarbonylamino-18-[5-(2-dimethylamino-ethoxy)-1,3-dihydro-isoindole-2-carbonyloxy]-2,15-dioxo-3,16-diaza-tricyclo[14.3.0.0^4,6]nonadec-7-ene-4-carboxylic acid]: below 1 µM.
For `CC(C)(C)OC(=O)N[C@H]1CCCCC/C=C\[C@@H]2C[C@@]2(C(=O)O)NC(=O)[C@@H]2C[C@@H](OC(=O)N3CCc4cccc(C(F)(F)F)c4C3)CN2C1=O` [AR00294382, (1S,4R,6S,14S,18R)-14-tert-Butoxycarbonylamino-2,15-dioxo-18-(8-trifluoromethyl-3,4-dihydro-1H-isoquinoline-2-carbonyloxy)-3,16-diaza-tricyclo[14.3.0.0^4,6]nonadec-7-ene-4-carboxylic acid], the IC50 was below 1 µM.
As for `CC(C)NCCOc1ccc2c(c1)CN(C(=O)O[C@@H]1C[C@H]3C(=O)N[C@]4(C(=O)O)C[C@H]4/C=C\CCCCC[C@H](NC(=O)OC(C)(C)C)C(=O)N3C1)C2` [AR00371948, (1S,4R,6S,14S,18R)-14-tert-Butoxycarbonylamino-18-[5-(2-isopropylamino-ethoxy)-1,3-dihydro-isoindole-2-carbonyloxy]-2,15-dioxo-3,16-diaza-tricyclo[14.3.0.0^4,6]nonadec-7-ene-4-carboxylic acid], the IC50 is below 0.1 µM.
Consider `COc1cc2c(cc1OC)CN(C(=O)O[C@@H]1C[C@H]3C(=O)N[C@]4(C(=O)O)C[C@H]4/C=C\CCCCC[C@H](NC(=O)OC(C)(C)C)C(=O)N3C1)CC2` [AR00226824, (1S,4R,6S,14S,18R)-14-tert-Butoxycarbonylamino-18-(6,7-dimethoxy-3,4-dihydro-1H-isoquinoline-2-carbonyloxy)-2,15-dioxo-3,16-diaza-tricyclo[14.3.0.0^4,6]nonadec-7-ene-4-carboxylic acid], for which the IC50 is below 10 µM.
`COc1ccccc1C1CCN(C(=O)O[C@@H]2C[C@H]3C(=O)N[C@]4(C(=O)O)C[C@H]4/C=C\CCCCC[C@H](NC(=O)OC(C)(C)C)C(=O)N3C2)CC1` [AR00320576, (1S,4R,6S,14S,18R)-14-tert-Butoxycarbonylamino-18-[4-(2-methoxy-phenyl)-piperidine-1-carbonyloxy]-2,15-dioxo-3,16-diaza-tricyclo[14.3.0.0^4,6]nonadec-7-ene-4-carboxylic acid]: the IC50 was below 10 µM.
For `CC(C)(C)OC(=O)N[C@H]1CCCCC/C=C\[C@@H]2C[C@@]2(C(=O)O)NC(=O)[C@@H]2C[C@@H](OC(=O)N3CCc4ccccc4C3CN3CCCCC3)CN2C1=O` (stereo partly drawn) [AR00301383, (1S,4R,6S,14S,18R)-14-tert-Butoxycarbonylamino-2,15-dioxo-18-(1-piperidin-1-ylmethyl-3,4-dihydro-1H-isoquinoline-2-carbonyloxy)-3,16-diaza-tricyclo[14.3.0.0^4,6]nonadec-7-ene-4-carboxylic acid], the IC50 was below 10 µM.
In the case of `Cc1nc2c(s1)CN(C(=O)O[C@@H]1C[C@H]3C(=O)N[C@]4(C(=O)O)C[C@H]4/C=C\CCCCC[C@H](NC(=O)OC(C)(C)C)C(=O)N3C1)CC2` [AR00304158, (1S,4R,6S,14S,18R)-14-tert-Butoxycarbonylamino-18-(2-methyl-6,7-dihydro-4H-thiazolo[5,4-c]pyridine-5-carbonyloxy)-2,15-dioxo-3,16-diaza-tricyclo[14.3.0.0^4,6]nonadec-7-ene-4-carboxylic acid], the 50% inhibitory concentration (IC50) was below 50 µM.
The same measure, in the same setting: the same measure for `CC(C)(C)OC(=O)N[C@H]1CCCCC/C=C\[C@@H]2C[C@@]2(C(=O)O)NC(=O)[C@@H]2C[C@@H](OC(=O)N3CCc4ncncc4C3)CN2C1=O` [AR00304183, (1S,4R,6S,14S,18R)-14-tert-Butoxycarbonylamino-18-(7,8-dihydro-5H-pyrido[4,3-d]pyrimidine-6-carbonyloxy)-2,15-dioxo-3,16-diaza-tricyclo[14.3.0.0^4,6]nonadec-7-ene-4-carboxylic acid]: below 50 µM; for `COc1ccc2c(c1)CCN(C(=O)O[C@@H]1C[C@H]3C(=O)N[C@]4(C(=O)O)C[C@H]4/C=C\CCCCC[C@H](NC(=O)OC(C)(C)C)C(=O)N3C1)C2CN1CCCCC1` (stereo partly drawn) [AR00333248, (1S,4R,6S,14S,18R)-14-tert-Butoxycarbonylamino-18-(6-methoxy-1-piperidin-1-ylmethyl-3,4-dihydro-1H-isoquinoline-2-carbonyloxy)-2,15-dioxo-3,16-diaza-tricyclo[14.3.0.0^4,6]nonadec-7-ene-4-carboxylic acid]: below 10 µM; for `CC(=O)Nc1nc2c(s1)CN(C(=O)O[C@@H]1C[C@H]3C(=O)N[C@]4(C(=O)O)C[C@H]4/C=C\CCCCC[C@H](NC(=O)OC(C)(C)C)C(=O)N3C1)CC2` [AR00314685, (1S,4R,6S,14S,18R)-18-(2-Acetylamino-6,7-dihydro-4H-thiazolo[5,4-c]pyridine-5-carbonyloxy)-14-tert-butoxycarbonylamino-2,15-dioxo-3,16-diaza-tricyclo[14.3.0.0^4,6]nonadec-7-ene-4-carboxylic acid]: below 50 µM.
For `COc1ccc2c(c1)CCN(C(=O)O[C@@H]1C[C@H]3C(=O)N[C@]4(C(=O)O)C[C@H]4/C=C\CCCCC[C@H](NC(=O)OC(C)(C)C)C(=O)N3C1)C2CN1CCOCC1` (stereo partly drawn) [AR00333276, (1S,4R,6S,14S,18R)-14-tert-Butoxycarbonylamino-18-(6-methoxy-1-morpholin-4-ylmethyl-3,4-dihydro-1H-isoquinoline-2-carbonyloxy)-2,15-dioxo-3,16-diaza-tricyclo[14.3.0.0^4,6]nonadec-7-ene-4-carboxylic acid], the IC50 is below 10 µM.
